Results taken from US8969327B2, “Substituted androst-4-ene diones” (priority 2010, dated 2015).

Target: T1, Purified P450arom (aromatase) reconstituted with P450-reductase (CPR) (Homo sapiens, UniProt P11511)
T1 sequence (P11511 1-503): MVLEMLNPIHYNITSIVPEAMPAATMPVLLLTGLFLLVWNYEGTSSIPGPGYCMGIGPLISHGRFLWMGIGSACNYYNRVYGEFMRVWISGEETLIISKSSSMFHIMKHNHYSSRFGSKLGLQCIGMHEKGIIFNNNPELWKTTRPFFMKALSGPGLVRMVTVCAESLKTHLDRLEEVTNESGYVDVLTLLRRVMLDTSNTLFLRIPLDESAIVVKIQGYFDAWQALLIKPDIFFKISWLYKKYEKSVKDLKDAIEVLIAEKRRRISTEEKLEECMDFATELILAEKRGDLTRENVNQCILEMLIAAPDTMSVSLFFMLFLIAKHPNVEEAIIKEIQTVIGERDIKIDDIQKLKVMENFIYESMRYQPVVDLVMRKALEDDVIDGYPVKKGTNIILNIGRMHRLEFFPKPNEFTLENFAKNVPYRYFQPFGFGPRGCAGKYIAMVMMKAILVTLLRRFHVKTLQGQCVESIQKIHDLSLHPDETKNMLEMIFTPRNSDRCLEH
Experiment: Measurement of aromatase activity by 3H-water method
Type: biochemical
Conditions: substrate 0.24 μM [1β-3H, 4-14C] androstenedione, 37° C., 20 minutes

[1] = compound concentration 0.1 (μmol)
[2] = compound concentration 1 (μmol)
[3] = compound concentration 10 (μmol)

## C[C@]12C=CC(=O)C=C1[C@H](OC(=O)Cc1ccccc1)C[C@@H]1[C@@H]2CC[C@]2(C)C(=O)CC[C@@H]12 [HDDG-031]
[1]
  % Inhibition: 0%
[2]
  % Inhibition: 51%
[3]
  % Inhibition: 47%

## CC(C)(C)O[C@@H]1C[C@@H]2[C@H](CC[C@]3(C)C(=O)CC[C@@H]23)[C@@]2(C)CCC(=O)C=C12 [HDDG-024]
[1]
  % Inhibition: 16%
[2]
  % Inhibition: 78%
[3]
  % Inhibition: 76%

## N#Cc1ccc(C(c2ccc(C#N)cc2)n2cncn2)cc1 [Letrazole, reference compound]
[1]
  % Inhibition: 76%
[2]
  % Inhibition: 98%

## C[C@]12C=CC(=O)C=C1[C@H](OC/C=C/c1ccccc1)C[C@@H]1[C@@H]2CC[C@]2(C)C(=O)CC[C@@H]12 [HDDG-058, (6R,8R,9S,10R,13S,14S)-6-(cinnamyloxy)-10,13-dimethyl-7,8,9,10,11,12,13,14,15,16-decahydro-3H-cyclopenta[α]phenanthrene-3,17(6H)-dione]
[1]
  % Inhibition: 95%
[2]
  % Inhibition: 94%

## COc1ccc(COC2=C(O)CC[C@@]3(C)C2=CC[C@@H]2[C@@H]3CC[C@]3(C)C(=O)CC[C@@H]23)cc1 [HDDG-064]
[1]
  % Inhibition: 96%
[2]
  % Inhibition: 96%

## CC/C=C\CO[C@@H]1C[C@@H]2[C@H](CC[C@]3(C)C(=O)CC[C@@H]23)[C@@]2(C)C=CC(=O)C=C12 [HDDG-062, (6R,8R,9S,10R,13S,14S)-10,13-dimethyl-6-((Z)-pent-2-en-1-yloxy)-7,8,9,10,11,12,13,14,15,16-decahydro-3H-cyclopenta[α]phenanthrene-3,17(6H)-dione]
[1]
  % Inhibition: 97%
[2]
  % Inhibition: 96%

## CC/C=C/CO[C@@H]1C[C@@H]2[C@H](CC[C@]3(C)C(=O)CC[C@@H]23)[C@@]2(C)C=CC(=O)C=C12 [HDDG-061, (6R,8R,9S,10R,13S,14S)-10,13-dimethyl-6-((E)-pent-2-en-1-yloxy)-7,8,9,10,11,12,13,14,15,16-decahydro-3H-cyclopenta[α]phenanthrene-3,17(6H)-dione]
[1]
  % Inhibition: 96%
[2]
  % Inhibition: 93%

## C[C@]12C=CC(=O)C=C1[C@H](OCC#Cc1cccc3ccccc13)C[C@@H]1[C@@H]2CC[C@]2(C)C(=O)CC[C@@H]12 [HDDG-054, (6R,8R,9S,10R,13S,14S)-10,13-dimethyl-6-((3-(naphthalen-1-yl)prop-2-yn-1-yl)oxy)-7,8,9,10,11,12,13,14,15,16-decahydro-3H-cyclopenta[α]phenanthrene-3,17(6H)-dione]
[1]
  % Inhibition: 94%
[2]
  % Inhibition: 92%

## C[C@]12C=CC(O)=C(OCC#Cc3ccccc3)C1=CC[C@@H]1[C@@H]2CC[C@]2(C)C(=O)CC[C@@H]12 [HDDG-038]
[1]
  % Inhibition: 22%
[2]
  % Inhibition: 97%
[3]
  % Inhibition: 91%

## C#CC(C)(C)O[C@@H]1C[C@@H]2[C@H](CC[C@]3(C)C(=O)CC[C@@H]23)[C@@]2(C)C=CC(=O)C=C12 [HDDG-028]
[1]
  % Inhibition: 18%
[2]
  % Inhibition: 44%
[3]
  % Inhibition: 35%

## CCC#CCO[C@@H]1C[C@@H]2[C@H](CC[C@]3(C)C(=O)CC[C@@H]23)[C@@]2(C)C=CC(=O)C=C12 [HDDG-046, (6R,8S,9S,10R,13S,14S)-10,13-dimethyl-6-(pent-2-yn-1-yloxy)-7,8,9,10,11,12,13,14,15,16-decahydro-3H-cyclopenta[α]phenanthrene-3,17(6H)-dione]
[1]
  % Inhibition: 89%
[2]
  % Inhibition: 96%
[3]
  % Inhibition: 99%

## CCC#CCO[C@@H]1C[C@@H]2[C@H](CC[C@]3(C)C(=O)CC[C@@H]23)[C@@]2(C)CCC(=O)C=C12 [HDDG-042]
[1]
  % Inhibition: 40%
[2]
  % Inhibition: 95%
[3]
  % Inhibition: 99%

## CCC(=O)OC1=C(O)C=CC2(C)C1=CCC1C2CCC2(C)C(=O)CCC12 (stereo not shown) [HDDG-022]
[1]
  % Inhibition: 51%
[2]
  % Inhibition: 86%
[3]
  % Inhibition: 86%

## C[C@]12C=CC(O)=C(OCc3ccccc3)C1=CC[C@@H]1[C@@H]2CC[C@]2(C)C(=O)CC[C@@H]12 [HDDG-043]
[1]
  % Inhibition: 18%
[2]
  % Inhibition: 97%
[3]
  % Inhibition: 90%

## C[C@]12CCC(=O)C(=[N+]=[N-])C1=CC[C@@H]1[C@@H]2CC[C@]2(C)C(=O)CC[C@@H]12 [HDDG-023]
[1]
  % Inhibition: 24%
[2]
  % Inhibition: 30%
[3]
  % Inhibition: 33%

## CCOC1=C(O)C=C[C@@]2(C)C1=CC[C@@H]1[C@@H]2CC[C@]2(C)C(=O)CC[C@@H]12 [HDDG-007]
[2]
  % Inhibition: 12%
[3]
  % Inhibition: 0%

## C[C@]12C=CC(=O)C(=[N+]=[N-])C1=CC[C@@H]1[C@@H]2CC[C@]2(C)C(=O)CC[C@@H]12 [HDDG-004]
[2]
  % Inhibition: 25%
[3]
  % Inhibition: 40%

## COC1=C(O)C=C[C@@]2(C)C1=CC[C@@H]1[C@@H]2CC[C@]2(C)C(=O)CC[C@@H]12 [HDDG-011]
[3]
  % Inhibition: 37%

## CO[C@@H]1C[C@@H]2[C@H](CC[C@]3(C)C(=O)CC[C@@H]23)[C@@]2(C)CCC(=O)C=C12 [HDDG-021]
[1]
  % Inhibition: 0%
[2]
  % Inhibition: 70%
[3]
  % Inhibition: 63%

## C[C@]12C=CC(=O)C=C1[C@H](OCC#Cc1ccccc1)C[C@@H]1[C@@H]2CC[C@]2(C)C(=O)CC[C@@H]12 [HDDG-027]
[1]
  % Inhibition: 27%
[2]
  % Inhibition: 66%
[3]
  % Inhibition: 94%

## C[C@]12CCC(=O)C=C1C(Br)C[C@@H]1[C@@H]2CC[C@]2(C)C(=O)CC[C@@H]12 (stereo partly shown) [HDDG-017]
[3]
  % Inhibition: 64%

## C[C@]12C=CC(=O)C=C1[C@H](OCC#CCO)C[C@@H]1[C@@H]2CC[C@]2(C)C(=O)CC[C@@H]12 [HDDG-065]
[1]
  % Inhibition: 96%
[2]
  % Inhibition: 84%

## CCCCC#CCO[C@@H]1C[C@@H]2[C@H](CC[C@]3(C)C(=O)CC[C@@H]23)[C@@]2(C)C=CC(=O)C=C12 [HDDG-048]
[1]
  % Inhibition: 48%
[2]
  % Inhibition: 87%
[3]
  % Inhibition: 97%

## CCCCCO[C@@H]1C[C@@H]2[C@H](CC[C@]3(C)C(=O)CC[C@@H]23)[C@@]2(C)C=CC(=O)C=C12 [HDDG-063, (6R,8R,9S,10R,13S,14S)-10,13-dimethyl-6-(pentyloxy)-7,8,9,10,11,12,13,14,15,16-decahydro-3H-cyclopenta[α]phenanthrene-3,17(6H)-dione]
[1]
  % Inhibition: 96%
[2]
  % Inhibition: 97%

## CCCCO[C@@H]1C[C@@H]2[C@H](CC[C@]3(C)C(=O)CC[C@@H]23)[C@@]2(C)C=CC(=O)C=C12 [HDDG-044, (6R,8S,9S,10R,13S,14S)-6-butoxy-10,13-dimethyl-7,8,9,10,11,12,13,14,15,16-decahydro-3H-cyclopenta[α]phenanthrene-3,17(6H)-dione]
[1]
  % Inhibition: 73%
[2]
  % Inhibition: 96%
[3]
  % Inhibition: 86%

## CC#CCO[C@@H]1C[C@@H]2[C@H](CC[C@]3(C)C(=O)CC[C@@H]23)[C@@]2(C)C=CC(=O)C=C12 [HDDG-029]
[1]
  % Inhibition: 34%
[2]
  % Inhibition: 63%
[3]
  % Inhibition: 95%

## CCOC1=C(O)CC[C@@]2(C)C1=CC[C@@H]1[C@@H]2CC[C@]2(C)C(=O)CC[C@@H]12 [HDDG-034]
[1]
  % Inhibition: 14%
[2]
  % Inhibition: 96%
[3]
  % Inhibition: 88%

## CC(=O)O[C@@H]1C[C@@H]2[C@H](CC[C@]3(C)C(=O)CC[C@@H]23)[C@@]2(C)C=CC(=O)C=C12 [HDDG-033]
[1]
  % Inhibition: 48%
[2]
  % Inhibition: 96%
[3]
  % Inhibition: 100%

## CCCC#CCO[C@@H]1C[C@@H]2[C@H](CC[C@]3(C)C(=O)CC[C@@H]23)[C@@]2(C)C=CC(=O)C=C12 [HDDG-047]
[1]
  % Inhibition: 42%
[2]
  % Inhibition: 95%
[3]
  % Inhibition: 99%

## C#CCO[C@@H]1C[C@@H]2[C@H](CC[C@]3(C)C(=O)CC[C@@H]23)[C@@]2(C)C=CC(=O)C=C12 [HDDG-026]
[1]
  % Inhibition: 10%
[2]
  % Inhibition: 35%
[3]
  % Inhibition: 80%

## C#CCOC1=C(O)C=C[C@@]2(C)C1=CC[C@@H]1[C@@H]2CC[C@]2(C)C(=O)CC[C@@H]12 [HDDG-032]
[1]
  % Inhibition: 32%
[2]
  % Inhibition: 98%
[3]
  % Inhibition: 93%

## CCO[C@@H]1C[C@@H]2[C@H](CC[C@]3(C)C(=O)CC[C@@H]23)[C@@]2(C)C=CC(=O)C=C12 [HDDG-025]
[2]
  % Inhibition: 19%
[3]
  % Inhibition: 39%

## C[C@]12CCC(=O)C=C1[C@H](OCc1ccccc1)C[C@@H]1[C@@H]2CC[C@]2(C)C(=O)CC[C@@H]12 [HDDG-041]
[1]
  % Inhibition: 34%
[2]
  % Inhibition: 95%
[3]
  % Inhibition: 87%

## C[C@]12C=CC(=O)C=C1[C@H](O)C[C@@H]1[C@@H]2CC[C@]2(C)C(=O)CC[C@@H]12 [HDDG-010]
[3]
  % Inhibition: 55%

## C[C@]12C=CC(=O)C=C1C=C[C@@H]1[C@@H]2CC[C@]2(C)C(=O)CC[C@@H]12 [HDDG-003]
[2]
  % Inhibition: 67%
[3]
  % Inhibition: 80%

## CO[C@H]1C[C@@H]2[C@H](CC[C@]3(C)C(=O)CC[C@@H]23)[C@@]2(C)C=CC(=O)C=C12 [HDDG-014]
[3]
  % Inhibition: 42%

## C[C@]12CCC(=O)CC1=CC[C@@H]1[C@@H]2CC[C@]2(C)C(=O)CC[C@@H]12 [HDDG-018]
[3]
  % Inhibition: 41%

## CC(C)(C)O[C@@H]1C[C@@H]2[C@H](CC[C@]3(C)C(=O)CC[C@@H]23)[C@@]2(C)C=CC(=O)C=C12 [HDDG-015]
[3]
  % Inhibition: 54%

## CO[C@@H]1C[C@@H]2[C@H](CC[C@]3(C)C(=O)CC[C@@H]23)[C@@]2(C)C=CC(=O)C=C12 [HDDG-009]
[3]
  % Inhibition: 55%
